{"source": "ChEMBL document CHEMBL3217538", "about": "“Antimycobacterial activity of spirooxindolo-pyrrolidine, pyrrolizine and pyrrolothiazole hybrids obtained by a three-component regio- and stereoselective 1,3-dipolar cycloaddition” (2011)", "key": {"[1]": {"tested_on": "Mycobacterium tuberculosis", "assay": "Antimycobacterial activity against Mycobacterium tuberculosis H37Rv by agar dilution method", "assay_type": "functional"}, "[2]": {"tested_on": "Mycobacterium tuberculosis", "assay": "Ratio of pyrazinamide MIC99 to compound MIC99 for Mycobacterium tuberculosis H37Rv", "assay_type": "functional"}}, "data": [{"molecule": "COc1ccc(C2C([N+](=O)[O-])C(c3ccccc3)N[C@@]23C(=O)Nc2ccccc23)cc1", "note": "(stereo partly drawn)", "values": [{"measurement": "MIC99", "setting": "[1]", "value": "> 60.2", "unit": "µM"}]}, {"molecule": "O=C1Nc2ccccc2[C@]12NC(c1ccccc1)C([N+](=O)[O-])C2c1ccc(Cl)cc1", "note": "(stereo partly drawn)", "values": [{"measurement": "MIC99", "setting": "[1]", "value": 29.8, "unit": "µM"}, {"measurement": "Ratio", "setting": "[2]", "value": 1.7}]}, {"molecule": "O=C1Nc2ccccc2[C@]12NC(c1ccccc1)C([N+](=O)[O-])C2c1cccc([N+](=O)[O-])c1", "note": "(stereo partly drawn)", "values": [{"measurement": "MIC99", "setting": "[1]", "value": 29, "unit": "µM"}, {"measurement": "Ratio", "setting": "[2]", "value": 1.75}]}, {"molecule": "O=C1Nc2ccccc2[C@]12NC(c1ccccc1)C([N+](=O)[O-])C2c1cccc(Cl)c1", "note": "(stereo partly drawn)", "values": [{"measurement": "MIC99", "setting": "[1]", "value": 14.9, "unit": "µM"}, {"measurement": "Ratio", "setting": "[2]", "value": 3.4}]}, {"molecule": "O=C1Nc2ccccc2[C@]12NC(c1ccccc1)C([N+](=O)[O-])C2c1ccc(F)cc1", "note": "(stereo partly drawn)", "values": [{"measurement": "MIC99", "setting": "[1]", "value": 31, "unit": "µM"}, {"measurement": "Ratio", "setting": "[2]", "value": 1.6}]}, {"molecule": "O=C1Nc2ccccc2[C@]12NC(c1ccccc1)C([N+](=O)[O-])C2c1ccccc1", "note": "(stereo partly drawn)", "values": [{"measurement": "MIC99", "setting": "[1]", "value": "> 64.9", "unit": "µM"}]}, {"molecule": "Cc1ccc(C2C([N+](=O)[O-])C(c3ccccc3)N[C@@]23C(=O)Nc2ccccc23)cc1", "note": "(stereo partly drawn)", "values": [{"measurement": "MIC99", "setting": "[1]", "value": "> 62.6", "unit": "µM"}]}, {"molecule": "O=C1Nc2ccccc2[C@]12NC(c1ccccc1)C([N+](=O)[O-])C2c1ccc(Br)cc1", "note": "(stereo partly drawn)", "values": [{"measurement": "MIC99", "setting": "[1]", "value": 26.9, "unit": "µM"}, {"measurement": "Ratio", "setting": "[2]", "value": 1.9}]}, {"molecule": "COc1ccc(OC)c(C2C([N+](=O)[O-])C(c3ccccc3)N[C@@]23C(=O)Nc2ccccc23)c1", "note": "(stereo partly drawn)", "values": [{"measurement": "MIC99", "setting": "[1]", "value": "> 56.1", "unit": "µM"}]}, {"molecule": "COc1ccc(C2C([N+](=O)[O-])C3CCCN3[C@@]23C(=O)Nc2ccccc23)cc1", "note": "(stereo partly drawn)", "values": [{"measurement": "MIC99", "setting": "[1]", "value": 65.9, "unit": "µM"}]}, {"molecule": "O=C1Nc2ccccc2[C@@]12C(c1ccc(Cl)cc1)C([N+](=O)[O-])C1CCCN12", "note": "(stereo partly drawn)", "values": [{"measurement": "MIC99", "setting": "[1]", "value": 32.6, "unit": "µM"}, {"measurement": "Ratio", "setting": "[2]", "value": 1.6}]}, {"molecule": "O=C1Nc2ccccc2[C@@]12C(c1cccc([N+](=O)[O-])c1)C([N+](=O)[O-])C1CCCN12", "note": "(stereo partly drawn)", "values": [{"measurement": "MIC99", "setting": "[1]", "value": 63.4, "unit": "µM"}]}, {"molecule": "O=C1Nc2ccccc2[C@@]12C(c1cccc(Cl)c1)C([N+](=O)[O-])C1CCCN12", "note": "(stereo partly drawn)", "values": [{"measurement": "MIC99", "setting": "[1]", "value": 32.6, "unit": "µM"}, {"measurement": "Ratio", "setting": "[2]", "value": 1.6}]}, {"molecule": "O=C1Nc2ccccc2[C@@]12C(c1ccc(F)cc1)C([N+](=O)[O-])C1CCCN12", "note": "(stereo partly drawn)", "values": [{"measurement": "MIC99", "setting": "[1]", "value": 68.1, "unit": "µM"}]}, {"molecule": "O=C1Nc2ccccc2[C@@]12C(c1ccccc1)C([N+](=O)[O-])C1CCCN12", "note": "(stereo partly drawn)", "values": [{"measurement": "MIC99", "setting": "[1]", "value": 71.6, "unit": "µM"}]}, {"molecule": "Cc1ccc(C2C([N+](=O)[O-])C3CCCN3[C@@]23C(=O)Nc2ccccc23)cc1", "note": "(stereo partly drawn)", "values": [{"measurement": "MIC99", "setting": "[1]", "value": 68.8, "unit": "µM"}]}, {"molecule": "O=C1Nc2ccccc2[C@@]12C(c1ccc(Br)cc1)C([N+](=O)[O-])C1CCCN12", "note": "(stereo partly drawn)", "values": [{"measurement": "MIC99", "setting": "[1]", "value": 58.4, "unit": "µM"}]}, {"molecule": "COc1ccc(OC)c(C2C([N+](=O)[O-])C3CCCN3[C@@]23C(=O)Nc2ccccc23)c1", "note": "(stereo partly drawn)", "values": [{"measurement": "MIC99", "setting": "[1]", "value": "> 61.1", "unit": "µM"}]}, {"molecule": "COc1cc(C2C([N+](=O)[O-])C3CCCN3[C@@]23C(=O)Nc2ccccc23)cc(OC)c1OC", "note": "(stereo partly drawn)", "values": [{"measurement": "MIC99", "setting": "[1]", "value": "> 56.9", "unit": "µM"}]}, {"molecule": "COc1ccc(C2C([N+](=O)[O-])C3CSCN3[C@@]23C(=O)Nc2ccccc23)cc1", "note": "(stereo partly drawn)", "values": [{"measurement": "MIC99", "setting": "[1]", "value": 62.9, "unit": "µM"}]}, {"molecule": "O=C1Nc2ccccc2[C@@]12C(c1ccc(Cl)cc1)C([N+](=O)[O-])C1CSCN12", "note": "(stereo partly drawn)", "values": [{"measurement": "MIC99", "setting": "[1]", "value": 15.5, "unit": "µM"}, {"measurement": "Ratio", "setting": "[2]", "value": 3.3}]}, {"molecule": "O=C1Nc2ccccc2[C@@]12C(c1cccc([N+](=O)[O-])c1)C([N+](=O)[O-])C1CSCN12", "note": "(stereo partly drawn)", "values": [{"measurement": "MIC99", "setting": "[1]", "value": 7.6, "unit": "µM"}, {"measurement": "Ratio", "setting": "[2]", "value": 6.7}]}, {"molecule": "O=C1Nc2ccccc2[C@@]12C(c1cccc(Cl)c1)C([N+](=O)[O-])C1CSCN12", "note": "(stereo partly drawn)", "values": [{"measurement": "MIC99", "setting": "[1]", "value": 7.8, "unit": "µM"}, {"measurement": "Ratio", "setting": "[2]", "value": 6.5}]}, {"molecule": "O=C1Nc2ccccc2[C@@]12C(c1ccc(F)cc1)C([N+](=O)[O-])C1CSCN12", "note": "(stereo partly drawn)", "values": [{"measurement": "MIC99", "setting": "[1]", "value": 8.2, "unit": "µM"}, {"measurement": "Ratio", "setting": "[2]", "value": 6.2}]}, {"molecule": "CC[C@@H](CO)NCCN[C@@H](CC)CO", "note": "[ETHAMBUTOL]", "values": [{"measurement": "MIC99", "setting": "[1]", "value": 7.6, "unit": "µM"}]}, {"molecule": "NNC(=O)c1ccncc1", "note": "[ISONIAZID]", "values": [{"measurement": "MIC99", "setting": "[1]", "value": 0.4, "unit": "µM"}]}, {"molecule": "NC(=O)c1cnccn1", "note": "[PYRAZINAMIDE]", "values": [{"measurement": "MIC99", "setting": "[1]", "value": 50.1, "unit": "µM"}]}]}
